Data published in patent USRE48335E1, “Polymyxin derivatives as antimicrobial compounds” (priority 2014, dated 2020).
≈ marks a conversion by molar mass, not a printed value. Positions of bridges follow the written chain, without caps; N, C: chain ends. Non-standard residues stand in square brackets, D forms with d. Residues, ends and D or L forms follow the SMILES beside them. *: point of attachment. Benzoyl(3,5-Cl2) = O=C(c1cc(Cl)cc(Cl)c1)*; X3 = O=C(c1ccc(Cl)cc1Cl)*; Dab = NCC[C@H](N)C(=O)O; Abu = CC[C@H](N)C(=O)O; Dap = NC[C@H](N)C(=O)O

What was measured:
[1] = tested on: K. pneumoniae FADDI-KP032; test: In vivo efficacy in mouse blood infection model (neutropenic Swiss mice); settings: compound, free base 4 mg/kg intravenously 2 h after inoculation, blood at 4 h
Outline: (§1)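 Activity expressed as Δlog10 CFU/mL blood, treated minus saline control, 4 h after a single 4 mg/kg (free base) i.v. dose given 2 h post-infection. Bloodstream infection from i.v. early log-phase inoculum in Swiss mice made neutropenic by i.p. cyclophosphamide on days −4 (150 mg/kg) and −1 (100 mg/kg).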

[2] = tested on: P. aeruginosa ATCC 27853; test: as above; settings: compound, free base 4 mg/kg intravenously 2 h after inoculation, blood at 4 h
Outline: as §1

[3] = tested on: A. baumannii ATCC 19606; test: as above; settings: compound, free base 4 mg/kg intravenously 2 h after inoculation, blood at 4 h
Outline: as §1

[4] = Nephrotoxicity in a mouse model (kidney histology score); format: in vivo; settings: mice, subcutaneous 12 mg base/kg, 6 doses in one day every 2 h; for Max Overall Kidney Histology Score: kidney ~20 h after last dose, product of percentage score and grade score; for Max Kidney Histology Score: semiquantitative score (SQS) 0 to +5
Description: PMB sulphate (Batch 20120204) and colistin sulphate (Batch 20120719) were supplied by Betapharma (Shanghai Co., Ltd, China). […] At ˜20 h after the last dose, mice were euthanised by inhalation of an overdose of isoflurane. […] The formalin-fixed kidneys were then sent to the Australian Phenomics Network-Histopathology and Organ Pathology (The University of Melbourne, Parkville, VIC, Australia) for histological examination. The samples were examined by a pathologist who was blind to the treatment groups. Lesions were rated as follows: mild acute tubular damage with tubular dilation, prominent nuclei and a few pale […] tubular casts (Grade 1); severe acute tubular damage with necrosis of tubular epithelial cells and numerous tubular casts (Grade 2); acute cortical necrosis/infarction of tubules and glomeruli with or without papillary necrosis (Grade 3). […] The overall kidney histology score was calculated as the product of percentage score and grade score. […] These scores were assigned as follows: […] SQS+3=moderate damage (overall score, 30 to <45); […]

[5] = tested on: Enterobacter cloacae; settings: broth microdilution in CAMHB; for Minimum inhibitory concentration, Ec FADDI-EC001: Enterobacter cloacae FADDI-EC001; for Minimum inhibitory concentration, Ec FADDI-EC003: Enterobacter cloacae FADDI-EC003; for Minimum inhibitory concentration, Ec FADDI-EC006: Enterobacter cloacae FADDI-EC006
Outline: (§2)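 Broth microdilution, CAMHB, per CLSI M100-S18; compounds as TFA salts; polymyxin B (sulphate) control; read-out MIC.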

[6] = tested on: Pseudomonas aeruginosa; settings: for MIC: P. aeruginosa ATCC 27853; for Minimum inhibitory concentration, Pa ATCC 27853: Pseudomonas aeruginosa ATCC 27853; for Minimum inhibitory concentration, Pa ATCC 27853 / Minimum inhibitory concentration, Pa FADDI-PA022 / Minimum inhibitory concentration, Pa FADDI-PA025: broth microdilution in CAMHB; for Minimum inhibitory concentration, Pa FADDI-PA022: Pseudomonas aeruginosa FADDI-PA022; for Minimum inhibitory concentration, Pa FADDI-PA025: Pseudomonas aeruginosa FADDI-PA025
Outline: as §2

[7] = tested on: Acinetobacter baumannii; settings: for MIC: A. baumannii ATCC 19606; for Minimum inhibitory concentration, Ab A ATCC 17978: Acinetobacter baumannii ATCC 17978; for Minimum inhibitory concentration, Ab A ATCC 17978 / Minimum inhibitory concentration, Ab ATCC 19606 / Minimum inhibitory concentration, Ab FADDI-AB034: broth microdilution in CAMHB; for Minimum inhibitory concentration, Ab ATCC 19606: Acinetobacter baumannii ATCC 19606; for Minimum inhibitory concentration, Ab FADDI-AB034: Acinetobacter baumannii FADDI-AB034
Outline: as §2

[8] = tested on: Klebsiella pneumoniae; settings: K. pneumoniae FADDI-KP032
Outline: as §2

Structure (SMILES)	Δ log (Treated-Control at 4 h) [1]	Δ log (Treated-Control at 4 h) [2]	Δ log (Treated-Control at 4 h) [3]	Max Overall Kidney Histology Score [4]	Max Kidney Histology Score [4]	Minimum inhibitory concentration, Ec FADDI-EC001 [5]	Minimum inhibitory concentration, Ec FADDI-EC003 [5]	Minimum inhibitory concentration, Ec FADDI-EC006 [5]	MIC [6]	Minimum inhibitory concentration, Pa ATCC 27853 [6]	Minimum inhibitory concentration, Pa FADDI-PA022 [6]	Minimum inhibitory concentration, Pa FADDI-PA025 [6]	MIC [7]	Minimum inhibitory concentration, Ab A ATCC 17978 [7]	Minimum inhibitory concentration, Ab ATCC 19606 [7]	Minimum inhibitory concentration, Ab FADDI-AB034 [7]	MIC [8]
CC[C@@H]1NC(=O)[C@@H](CC(C)C)NC(=O)[C@H](CCN)NC(=O)[C@@H](NC(=O)[C@H](CN)NC(=O)[C@@H](NC(=O)[C@H](CCN)NC(=O)c2ccc(Cl)cc2Cl)[C@@H](C)O)CCNC(=O)[C@H]([C@@H](C)O)NC(=O)[C@H](CCN)NC(=O)[C@H](CCN)NC1=O [Compound 82] (X3-[Dab]T[Dap][Dab][Dab][dL][Abu][Dab][Dab]T; lactam 4-C)	−3.33 log10 CFU/mL	−3.44 log10 CFU/mL	−1.44 log10 CFU/mL	0.0	0 (SQS 0=no significant change (overall score, <1))	<0.125 µg/mL	<0.125 µg/mL	<0.125 µg/mL	0.5 µg/mL (≈ 0.431 µM)	0.5 µg/mL (≈ 0.431 µM)	0.5 µg/mL (≈ 0.431 µM)	1 µg/mL (≈ 0.862 µM)	0.5 µg/mL (≈ 0.431 µM)	0.5 µg/mL (≈ 0.431 µM)	0.5 µg/mL (≈ 0.431 µM)	0.25 µg/mL (≈ 0.215 µM)	<0.125 µg/mL
CC[C@@H]1NC(=O)[C@@H](CC(C)C)NC(=O)[C@H](CCN)NC(=O)[C@@H](NC(=O)[C@H](CN)NC(=O)[C@@H](NC(=O)[C@H](CCN)NC(=O)c2cc(Cl)cc(Cl)c2)[C@@H](C)O)CCNC(=O)[C@H]([C@@H](C)O)NC(=O)[C@H](CCN)NC(=O)[C@H](CCN)NC1=O [Compound 96] ({Benzoyl(3,5-Cl2)}-[Dab]T[Dap][Dab][Dab][dL][Abu][Dab][Dab]T; lactam 4-C)	−2.75 log10 CFU/mL	−3.45 log10 CFU/mL	−2.42 log10 CFU/mL	2.0	+1 (SQS+1=mild damage (overall score, 1 to <15))	1 µg/mL (≈ 0.862 µM)	1 µg/mL (≈ 0.862 µM)	0.5 µg/mL (≈ 0.431 µM)	0.25 µg/mL (≈ 0.215 µM)	0.25 µg/mL (≈ 0.215 µM)	0.25 µg/mL (≈ 0.215 µM)	0.5 µg/mL (≈ 0.431 µM)	0.5 µg/mL (≈ 0.431 µM)	0.25 µg/mL (≈ 0.215 µM)	0.5 µg/mL (≈ 0.431 µM)	0.25 µg/mL (≈ 0.215 µM)	<0.125 µg/mL
